Assay [1] addresses T1, human JAK1 (a.a. 837-1142) (Homo sapiens, UniProt P23458).
T1 construct: human JAK1 (a.a. 837-1142); His tag (N); made in house; host or cells: insect cells (baculovirus)
The assay is described as follows: In vitro JAK Kinase Assay (HTRF), JAK1. Format: biochemical. To be noted: 1 mM ATP. As to the method:
(§1) The catalytic activity of JAK1 and JAK2 was assayed by measuring the phosphorylation of a biotinylated peptide. The phosphorylated peptide was detected by homogenous time resolved fluorescence (HTRF). […] Reactions were carried out at room temperature for 1 hr and then stopped with 20 μL 45 mM EDTA, 300 nM SA-APC, 6 nM Eu-Py20 in assay buffer (Perkin Elmer, Boston, Mass.). Binding to the Europium labeled antibody took place for 40 minutes and HTRF signal was measured on a Fusion plate reader (Perkin Elmer, Boston, Mass.).
(In TR-FRET formats the signal depends on donor and acceptor labels being close together.)

For assay [2], the target named is T2, human JAK2 (a.a. 828-1132) (Homo sapiens, UniProt O60674).
T2 construct: JAK2 (a.a. 828-1132); His tag (N); made in house; host or cells: insect cells (baculovirus)
T2 sequence (O60674 828-1132): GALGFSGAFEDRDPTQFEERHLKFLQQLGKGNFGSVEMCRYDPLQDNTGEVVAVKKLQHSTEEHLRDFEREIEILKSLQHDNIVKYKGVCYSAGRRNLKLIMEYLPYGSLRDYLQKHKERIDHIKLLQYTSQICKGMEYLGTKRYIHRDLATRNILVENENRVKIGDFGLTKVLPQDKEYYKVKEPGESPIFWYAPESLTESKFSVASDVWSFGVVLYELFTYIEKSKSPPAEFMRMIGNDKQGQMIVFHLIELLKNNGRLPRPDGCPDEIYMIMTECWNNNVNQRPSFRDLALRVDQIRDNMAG
The assay is described as follows: In vitro JAK Kinase Assay (HTRF), JAK2 (for JAK2/JAK1 ratio). To be noted: ratio of IC50s, 1 mM ATP. The class given is biochemical. The procedure: as §1

In general, IC50 refers to the concentration at which inhibition is half-maximal. Lower therefore signals inhibition by little substance.

T1 sequence (P23458 849-1154): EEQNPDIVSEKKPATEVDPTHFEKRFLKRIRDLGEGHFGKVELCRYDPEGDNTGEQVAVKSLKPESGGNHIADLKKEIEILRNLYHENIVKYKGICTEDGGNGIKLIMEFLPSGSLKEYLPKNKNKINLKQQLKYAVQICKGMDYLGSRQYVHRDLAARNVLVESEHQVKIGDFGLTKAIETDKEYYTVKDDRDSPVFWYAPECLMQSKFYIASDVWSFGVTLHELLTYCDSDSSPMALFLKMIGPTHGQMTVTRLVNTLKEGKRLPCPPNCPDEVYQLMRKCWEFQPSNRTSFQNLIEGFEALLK

As to `N#CCC1(n2cc(-c3ncnc4[nH]ccc34)cn2)CN(C2CCN(C(=O)c3ccnc(C(F)(F)F)n3)CC2)C1` [Compound 9, [3-[4-(7H-pyrrolo[2,3-d]pyrimidin-4-yl)-1H-pyrazol-1-yl]-1-(l-{[2-(trifluoromethyl)pyrimidin-4-yl]carbonyl}piperidin-4-yl)azetidin-3-yl]acetonitrile], the concentration for half-maximal inhibition (IC50) in assay [1] was under 10 nM. In assay [2], the JAK2/JAK1 is reported as over 10.

Molecule `N#CCC1(n2cc(-c3ncnc4[nH]ccc34)cn2)CN([C@H]2CC[C@@H](Oc3cc(CCO)nc(C(F)(F)F)n3)CC2)C1` [Compound 18, (l-(cis-4-{[6-(2-hydroxyethyl)-2-(trifluoromethyl)pyrimidin-4-yl]oxy}cyclohexyl)-3-[4-(7H-pyrrolo[2,3-d]pyrimidin-4-yl)-1H-pyrazol-1-yl]azetidin-3-yl}acetonitrile] displayed an IC50 in assay [1] of under 10 nM. The JAK2/JAK1 in assay [2] is on record as over 10.

`N#CCC(CN1CCN(C(=O)c2ccc(C#N)cc2F)CC1)n1ccc(-c2ncnc3[nH]ccc23)c1` (stereo not drawn) [Compound 6, 4-[(4-{3-cyano-2-[3-(7H-pyrrolo[2,3-d]pyrimidin-4-yl)-1H-pyrrol-1-yl]propyl}piperazin-l-yl)carbonyl]-3-fluorobenzonitrile] yielded a concentration for half-maximal inhibition (IC50) in assay [1] of under 10 nM. Further, the JAK2/JAK1 in assay [2] is over 10.

`N#CC[C@]1(n2cc(-c3ncnc4[nH]ccc34)cn2)C[C@H](N2CCC(Oc3cc(CN4CCC[C@H]4CO)cc(C(F)(F)F)n3)CC2)C1` [Compound 12, {trans-3-(4-{[4-{[(2S)-2-(hydroxymethyl)pyrrolidin-1-yl]methyl}-6-(trifluoromethyl)pyridin-2-yl]oxy}piperidin-1-yl)-1-[4-(7H-pyrrolo[2,3-d]pyrimidin-4-yl)-1H-pyrazol-1-yl]cyclobutyl}acetonitrile]: the IC50 in assay [1] was under 10 nM. The JAK2/JAK1 in assay [2] is listed as over 10.

`N#CCC(C1CCN(c2cccc(Cl)n2)C1)n1cc(-c2ncnc3[nH]ccc23)cn1` (single isomer, unassigned) [Compound 3, 3-[1-(6-chloropyridin-2-yl)pyrrolidin-3-yl]-3-[4-(7H-pyrrolo[2,3-d]pyrimidin-4-yl)-1H-pyrazol-1-yl]propanenitrile]: in assay [1], the IC50 was under 10 nM. For the same molecule, in assay [2], the JAK2/JAK1 is over 10.

For the molecule `N#CCC(CN1CCN(C(=O)c2ccc(C#N)cc2F)CC1)n1cc(-c2ncnc3[nH]ccc23)cn1` (stereo not shown) [Compound 5, 4-[(4-{3-cyano-2-[4-(7H-pyrrolo[2,3-d]pyrimidin-4-yl)-1H-pyrazol-1-yl]propyl}piperazin-1-yl)carbonyl]-3-fluorobenzonitrile], in assay [1], the IC50 was under 10 nM. For the same molecule, in assay [2], the JAK2/JAK1 is given as over 10.

The molecule `C[C@@H](O)c1nc2cnc3ccsc3c2n1[C@H]1CC[C@H](CC#N)OC1` [Compound 1, ((2R,5S)-5-{2-[(1R)-1-hydroxyethyl]-1H-imidazo[4,5-d]thieno[3,2-b]pyridin-1-yl}tetrahydro-2H-pyran-2-yl)acetonitrile] displayed an IC50 in assay [1] of under 100 nM. The JAK2/JAK1 in assay [2] is listed as over 10.

For `N#CC[C@]1(n2cc(-c3ncnc4[nH]ccc34)cn2)C[C@H](N2CCC(Oc3cc(CCO)cc(C(F)(F)F)n3)CC2)C1` [Compound 26, {trans-3-(4-{[4-(2-hydroxyethyl)-6-(trifluoromethyl)pyridin-2-yl]oxy}piperidin-1-yl)-1-[4-(7H-pyrrolo[2,3-d]pyrimidin-4-yl)-1H-pyrazol-1-yl]cyclobutyl}acetonitrile], the IC50 in assay [1] is under 10 nM. For the same molecule, the JAK2/JAK1 in assay [2] was over 10.

As for `N#CCC1(n2cc(-c3ncnc4[nH]ccc34)cn2)CN(C2CCN(C(=O)Nc3ccc(F)cc3C(F)(F)F)CC2)C1` [Compound 8, 4-{3-(Cyanomethyl)-3-[4-(7H-pyrrolo[2,3-d]pyrimidin-4-yl)-1H-pyrazol-1-yl]azetidin-1-yl}-N-[4-fluoro-2-(trifluoromethyl)phenyl]piperidine-1-carboxamide], the IC50 in assay [1] is under 10 nM. In addition, the JAK2/JAK1 in assay [2] is on record as over 10.

For `CC(C)(O)c1cc(O[C@H]2CC[C@@H](N3CC(CC#N)(n4cc(-c5ncnc6[nH]ccc56)cn4)C3)CC2)nc(C(F)(F)F)c1` [Compound 20, {1-(cis-4-{[4-(1-hydroxy-1-methylethyl)-6-(trifluoromethyl)pyridin-2-yl]oxy}cyclohexyl)-3-[4-(7H-pyrrolo[2,3-d]pyrimidin-4-yl)-1H-pyrazol-1-yl]azetidin-3-yl}acetonitrile], the half-maximal inhibitory concentration (IC50) in assay [1] is under 10 nM. Moreover, in assay [2], the JAK2/JAK1 is on record as over 10.

With `N#CCC(C1CCN(c2nc3cccnc3o2)C1)n1cc(-c2ncnc3[nH]ccc23)cn1` (stereo not shown) [Compound 4, 3-(1-[1,3]oxazolo[5,4-b]pyridin-2-ylpyrrolidin-3-yl)-3-[4-(7H-pyrrolo[2,3-d]pyrimidin-4-yl)-1H-pyrazol-1-yl]propanenitrile], the IC50 in assay [1] is under 10 nM. Moreover, the JAK2/JAK1 in assay [2] is on record as over 10.

The molecule `CCNCc1cc(O[C@H]2CC[C@@H](N3CC(CC#N)(n4cc(-c5ncnc6[nH]ccc56)cn4)C3)CC2)nc(C(F)(F)F)c1` [Compound 19, {l-(cis-4-{[4-[(ethylamino)methyl]-6-(trifluoromethyl)pyridin-2-yl]oxy}cyclohexyl)-3-[4-(7H-pyrrolo[2,3-d]pyrimidin-4-yl)-1H-pyrazol-1-yl]azetidin-3-yl}acetonitrile] came in with an IC50 in assay [1] of under 10 nM. In assay [2], the JAK2/JAK1 is recorded as over 10.

`N#CC[C@]1(n2cc(-c3ncnc4[nH]ccc34)cn2)C[C@H](N2CCC(Oc3cc(CN4CCC[C@@H]4CO)cc(C(F)(F)F)n3)CC2)C1` [Compound 13, {trans-3-(4-{[4-{[(2R)-2-(hydroxymethyl)pyrrolidin-1-yl]methyl}-6-(trifluoromethyl)pyridin-2-yl]oxy}piperidin-1-yl)-1-[4-(7H-pyrrolo[2,3-d]pyrimidin-4-yl)-1H-pyrazol-1-yl]cyclobutyl}acetonitrile]: the IC50 in assay [1] is under 10 nM. Further, in assay [2], the JAK2/JAK1 is listed as over 10.

As to `N#CCC1(n2cc(-c3ncnc4[nH]ccc34)cn2)CN([C@H]2CC[C@@H](Oc3cc(CN4CC[C@@H](O)C4)cc(C(F)(F)F)n3)CC2)C1` [Compound 21, {1-(cis-4-{[4-{[(3R)-3-hydroxypyrrolidin-1-yl]methyl}-6-(trifluoromethyl)pyridin-2-yl]oxy}cyclohexyl)-3-[4-(7H-pyrrolo[2,3-d]pyrimidin-4-yl)-1H-pyrazol-1-yl]azetidin-3-yl}acetonitrile], the half-maximal inhibitory concentration (IC50) in assay [1] is under 10 nM. Further, the JAK2/JAK1 in assay [2] is over 10.

For the origin of these results see patent US20150065447A1, “SURVIVAL BENEFIT IN PATIENTS WITH SOLID TUMORS WITH ELEVATED C-REACTIVE PROTEIN LEVELS” (Incyte Corporation, priority 2013, published 2015).
